Experimental data reported in the supplement of paper PMC10307832.

Key:
Experiment in all cases: relative viability (nuclei count vs DMSO), 5 days (fraction); higher = more cells survive
LCLC-103H = tested on: LCLC-103H
In short: (§1)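 Relative viability was taken as the ratio of nuclei in treated wells to nuclei in vehicle wells. Lung cancer cell lines in 1536-well plates received compounds by pin tool one day after seeding, either one drug alone or a fixed anchor-drug dose plus five library-drug doses (not always all listed) in √10 steps. Nuclei were counted on 4× images after 5 days of treatment, and values are medians of duplicate plates.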

NCI-H1944 = tested on: NCI-H1944
In short: as §1

NCI-H2126 = tested on: NCI-H2126
In short: as §1

SK-LU-1 = tested on: SK-LU-1
In short: as §1

ChaGo-K-1 = tested on: ChaGo-K-1
In short: as §1

NCI-H1395 = tested on: NCI-H1395
In short: as §1

ABC-1 = tested on: ABC-1
In short: as §1

LXF-289 = tested on: LXF-289
In short: as §1

NCI-H322M = tested on: NCI-H322M
In short: as §1

NCI-H1666 = tested on: NCI-H1666
In short: as §1

RERF-LC-KJ = tested on: RERF-LC-KJ
In short: as §1

NCI-H358 = tested on: NCI-H358
In short: as §1

LU99A = tested on: LU99A
In short: as §1

NCI-H1792 = tested on: NCI-H1792
In short: as §1

CAL-12T = tested on: CAL-12T
In short: as §1

HCC-44 = tested on: HCC-44
In short: as §1

NCI-H520 = tested on: NCI-H520
In short: as §1

HCC-827 = tested on: HCC-827
In short: as §1

NCI-H3122 = tested on: NCI-H3122
In short: as §1

NCI-H1793 = tested on: NCI-H1793
In short: as §1

NCI-H1755 = tested on: NCI-H1755
In short: as §1

NCI-H2347 = tested on: NCI-H2347
In short: as §1

## Cc1csc(=NC2CCCCC2)n1/N=C/c1ccc(O)c(O)c1O [MIM1] + N=C(N)NC(=N)NCCc1ccccc1 [Phenformin] (partner 250 µM)
LCLC-103H; first compound 0.2 µM
  relative viability: 0.334
LCLC-103H; first compound 0.6325 µM
  relative viability: 0.297
LCLC-103H; first compound 2 µM
  relative viability: 0.354
LCLC-103H; first compound 6.325 µM
  relative viability: 0.334
LCLC-103H; first compound 20 µM
  relative viability: 0.291
NCI-H1944; first compound 0.2 µM
  relative viability: 0.208
NCI-H1944; first compound 0.6325 µM
  relative viability: 0.206
NCI-H1944; first compound 2 µM
  relative viability: 0.149
NCI-H1944; first compound 6.325 µM
  relative viability: 0.163
NCI-H1944; first compound 20 µM
  relative viability: 0.104
NCI-H2126; first compound 0.2 µM
  relative viability: 0.512
NCI-H2126; first compound 0.6325 µM
  relative viability: 0.524
NCI-H2126; first compound 2 µM
  relative viability: 0.54
NCI-H2126; first compound 6.325 µM
  relative viability: 0.45
NCI-H2126; first compound 20 µM
  relative viability: 0.391
SK-LU-1; first compound 0.2 µM
  relative viability: 0.533
SK-LU-1; first compound 0.6325 µM
  relative viability: 0.579
SK-LU-1; first compound 2 µM
  relative viability: 0.617
SK-LU-1; first compound 6.325 µM
  relative viability: 0.405
SK-LU-1; first compound 20 µM
  relative viability: 0.393
ChaGo-K-1; first compound 0.2 µM
  relative viability: 0.521
ChaGo-K-1; first compound 0.6325 µM
  relative viability: 0.49
ChaGo-K-1; first compound 2 µM
  relative viability: 0.45
ChaGo-K-1; first compound 6.325 µM
  relative viability: 0.227
ChaGo-K-1; first compound 20 µM
  relative viability: 0.171
NCI-H1395; first compound 0.2 µM
  relative viability: 0.45
NCI-H1395; first compound 0.6325 µM
  relative viability: 0.444
NCI-H1395; first compound 2 µM
  relative viability: 0.459
NCI-H1395; first compound 6.325 µM
  relative viability: 0.399
NCI-H1395; first compound 20 µM
  relative viability: 0.346
ABC-1; first compound 0.2 µM
  relative viability: 0.228
ABC-1; first compound 0.6325 µM
  relative viability: 0.261
ABC-1; first compound 2 µM
  relative viability: 0.231
ABC-1; first compound 6.325 µM
  relative viability: 0.201
ABC-1; first compound 20 µM
  relative viability: 0.189
LXF-289; first compound 0.2 µM
  relative viability: 0.517
LXF-289; first compound 0.6325 µM
  relative viability: 0.476
LXF-289; first compound 2 µM
  relative viability: 0.532
LXF-289; first compound 6.325 µM
  relative viability: 0.452
LXF-289; first compound 20 µM
  relative viability: 0.264
NCI-H322M; first compound 0.2 µM
  relative viability: 0.905
NCI-H322M; first compound 0.6325 µM
  relative viability: 0.809
NCI-H322M; first compound 2 µM
  relative viability: 0.766
NCI-H322M; first compound 6.325 µM
  relative viability: 0.735
NCI-H322M; first compound 20 µM
  relative viability: 0.36
NCI-H1666; first compound 0.2 µM
  relative viability: 0.578
NCI-H1666; first compound 0.6325 µM
  relative viability: 0.607
NCI-H1666; first compound 2 µM
  relative viability: 0.517
NCI-H1666; first compound 6.325 µM
  relative viability: 0.456
NCI-H1666; first compound 20 µM
  relative viability: 0.26
RERF-LC-KJ; first compound 0.2 µM
  relative viability: 0.447
RERF-LC-KJ; first compound 0.6325 µM
  relative viability: 0.414
RERF-LC-KJ; first compound 2 µM
  relative viability: 0.348
RERF-LC-KJ; first compound 6.325 µM
  relative viability: 0.353
RERF-LC-KJ; first compound 20 µM
  relative viability: 0.303
NCI-H358; first compound 0.2 µM
  relative viability: 0.373
NCI-H358; first compound 0.6325 µM
  relative viability: 0.296
NCI-H358; first compound 2 µM
  relative viability: 0.299
NCI-H358; first compound 6.325 µM
  relative viability: 0.135
NCI-H358; first compound 20 µM
  relative viability: 0.118
LU99A; first compound 0.2 µM
  relative viability: 0.976
LU99A; first compound 0.6325 µM
  relative viability: 0.753
LU99A; first compound 2 µM
  relative viability: 0.819
LU99A; first compound 6.325 µM
  relative viability: 0.702
LU99A; first compound 20 µM
  relative viability: 0.325
NCI-H1792; first compound 0.2 µM
  relative viability: 0.446
NCI-H1792; first compound 0.6325 µM
  relative viability: 0.401
NCI-H1792; first compound 2 µM
  relative viability: 0.322
NCI-H1792; first compound 6.325 µM
  relative viability: 0.353
NCI-H1792; first compound 20 µM
  relative viability: 0.43
CAL-12T; first compound 0.2 µM
  relative viability: 0.614
CAL-12T; first compound 0.6325 µM
  relative viability: 0.467
CAL-12T; first compound 2 µM
  relative viability: 0.586
CAL-12T; first compound 6.325 µM
  relative viability: 0.372
CAL-12T; first compound 20 µM
  relative viability: 0.119
HCC-44; first compound 0.2 µM
  relative viability: 0.239
HCC-44; first compound 0.6325 µM
  relative viability: 0.138
HCC-44; first compound 2 µM
  relative viability: 0.111
HCC-44; first compound 6.325 µM
  relative viability: 0.154
HCC-44; first compound 20 µM
  relative viability: 0.13
NCI-H520; first compound 0.2 µM
  relative viability: 0.793
NCI-H520; first compound 0.6325 µM
  relative viability: 0.512
NCI-H520; first compound 2 µM
  relative viability: 0.561
NCI-H520; first compound 6.325 µM
  relative viability: 0.447
NCI-H520; first compound 20 µM
  relative viability: 0.323
HCC-827; first compound 0.2 µM
  relative viability: 0.412
HCC-827; first compound 0.6325 µM
  relative viability: 0.377
HCC-827; first compound 2 µM
  relative viability: 0.404
HCC-827; first compound 6.325 µM
  relative viability: 0.31
HCC-827; first compound 20 µM
  relative viability: 0.13
NCI-H3122; first compound 0.2 µM
  relative viability: 0.364
NCI-H3122; first compound 0.6325 µM
  relative viability: 0.371
NCI-H3122; first compound 2 µM
  relative viability: 0.355
NCI-H3122; first compound 6.325 µM
  relative viability: 0.195
NCI-H3122; first compound 20 µM
  relative viability: 0.143
NCI-H1793; first compound 0.2 µM
  relative viability: 0.389
NCI-H1793; first compound 2 µM
  relative viability: 0.351
NCI-H1793; first compound 6.325 µM
  relative viability: 0.373
NCI-H1793; first compound 20 µM
  relative viability: 0.302
NCI-H1755; first compound 0.2 µM
  relative viability: 0.596
NCI-H1755; first compound 0.6325 µM
  relative viability: 0.597
NCI-H1755; first compound 2 µM
  relative viability: 0.621
NCI-H1755; first compound 6.325 µM
  relative viability: 0.506
NCI-H1755; first compound 20 µM
  relative viability: 0.226
NCI-H2347; first compound 0.2 µM
  relative viability: 0.435
NCI-H2347; first compound 0.6325 µM
  relative viability: 0.32
NCI-H2347; first compound 2 µM
  relative viability: 0.387
NCI-H2347; first compound 6.325 µM
  relative viability: 0.39
NCI-H2347; first compound 20 µM
  relative viability: 0.288
